# pIC50: −log10 of the molar value.
# Assays:
# 5-HT1A receptor [1] = molecular target: T1, 5-HT1A receptor (Rattus norvegicus, UniProt P19327); experiment: 5-HT1A receptor binding affinity in rat hippocampal membrane homogenate; set-up: in rat hippocampal membrane homogenate; from tissue; host or cells: rat hippocampal membrane homogenate; settings: for pIC50: rat hippocampal membrane homogenate; for Ratio 5HT1A / α1 (binding selectivity): ratio of 5-HT1A binding to α1 binding
# T1 sequence (P19327 1-422): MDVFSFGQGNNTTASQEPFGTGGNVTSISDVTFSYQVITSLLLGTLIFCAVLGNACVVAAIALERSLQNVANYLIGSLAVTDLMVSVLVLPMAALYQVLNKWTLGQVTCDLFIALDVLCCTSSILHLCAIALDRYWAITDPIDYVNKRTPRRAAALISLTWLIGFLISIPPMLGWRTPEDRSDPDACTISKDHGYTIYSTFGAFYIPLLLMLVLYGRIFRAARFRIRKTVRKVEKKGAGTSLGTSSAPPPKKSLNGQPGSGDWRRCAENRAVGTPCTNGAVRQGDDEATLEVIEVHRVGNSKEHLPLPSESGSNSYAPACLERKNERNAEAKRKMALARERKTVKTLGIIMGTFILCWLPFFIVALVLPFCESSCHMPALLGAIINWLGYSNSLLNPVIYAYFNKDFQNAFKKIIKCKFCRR
# Procedure: The compounds were tested for 5-HT1A binding affinity (column 2) in rat hippocampal membrane homogenate by the method of B. S. Alexander and M. D. Wood, J. Pharm. Pharmacol., 1988, 40, 888-891.
# α1 receptor = α1 receptor binding affinity
# Procedure: The compounds were tested for α1 binding affinity (column 3) by the procedure of A. L. Marrow et al, Mol. Pharmacol., 1986, 29, 321.
# 5-HT1A receptor [2] = molecular target: T1, 5-HT1A receptor; experiment: Oral 5-HT1A receptor antagonist activity: antagonism of 8-OH-DPAT syndrome in rats; type: in vivo
# Procedure: 5-HT1A receptor antagonist activity (columns 5 and 6) is assessed by the ability of the selective 5-HT1A receptor agonist, 8-OH-DPAT, to induce the `8-OH-DPAT syndrome` in rats characterised by extended flat body posture, forepaw treading and hyperlocomotion. The 8-OH-DPAT syndrome is scored as present (definite syndrome response) or absent (equivocal or no syndrome response) during the period 0-5 min following intravenous (i.v.) administration of the test agonist via a lateral tail vein.
# A range of doses, on a logarithmic scale and encompassing the expected ED50, were chosen for the test agonist following preliminary evaluation. […]
# Test antagonists were administered orally (p.o.) 60 min, before i.v. administration of 8-OH-DPAT. ED50 values for 8-OH-DPAT were determined for the different pretreatment groups using the sequential up/down procedure as described above.
# The response to the selective 5-HT1A receptor agonist, 8-OH-DPAT, is represented as an ED50 value for induction of the 8-OH-DPAT syndrome, which is determined using the sequential up/down analysis following intravenous administration. 5-HT1A antagonist activity is determined by the ability of the test compound to antagonise the response to 8-OH-DPAT, i.e. to increase the ED50 for induction of the 8-OH-DPAT syndrome compared with vehicle pretreatment. […]
compound,measurement,setting,value
"C[C@H](CN1CCN(c2cccc3[nH]ccc23)CC1)N(C(=O)C1CCCCC1)c1ccccn1 [Compound A1, (R)-N-(1-methyl-2-(4-indolyl-1-piperazinyl)ethyl)-N-(2-pyridyl)-cyclohexanecarboxamide]",pIC50,5-HT1A receptor [1],8.37
same,Ratio 5HT1A / α1 (binding selectivity),5-HT1A receptor [1],564.4
"C[C@H](CN(C(=O)C1CCCCC1)c1ccccn1)N1CCN(c2cccc3[nH]ccc23)CC1 [Compound A2, (R)-N-(2-methyl-2-(4-indolyl-1-piperazinyl)ethyl)-N-(2-pyridyl)-cyclohexanecarboxamide]",pIC50,5-HT1A receptor [1],8.17
same,Ratio 5HT1A / α1 (binding selectivity),5-HT1A receptor [1],142.5
O=C(C1CCCCC1)N(CCN1CCN(c2cccc3[nH]ccc23)CC1)c1ccccn1 [Compound A3],pIC50,α1 receptor,5.99
same,5-HT1A antagonist Ratio (ED50 antagonist @ 3mg/kg po)/ED50 vehicle,"5-HT1A receptor [2]; ED50 of 8-OH-DPAT (i.v.) after test compound 3 mg/kg p.o. divided by ED50 after vehicle, rats",34.4
same,5-HT1A antagonist oral activity (in words),"5-HT1A receptor [2]; oral, compared to compounds of EP-A-512755",surprising increase in oral activity as 5-HT1A antagonists
same,5-HT1A binding affinity (in words),5-HT1A receptor [1],good 5-HT1A binding affinity
same,5-HT1A/α1 selectivity (in words),5-HT1A receptor [1]; binding affinity at 5-HT1A compared to α1 receptors,good
same,pIC50,5-HT1A receptor [1],8.49
same,Ratio 5HT1A / α1 (binding selectivity),5-HT1A receptor [1],317.5

# Reference: patent US5723464A, “Piperazine derivatives” (American Home Products Corporation, priority 1994, dated 1998)
